Experimental data published in publication PMC10779222, “Copper(II) Complexes with 1-(Isoquinolin-3-yl)heteroalkyl-2-ones: Synthesis, Structure and Evaluation of Anticancer, Antimicrobial and Antioxidant Potential” (International Journal of Molecular Sciences, 2023).
Converted amounts (≈) assume the structure as drawn. “And” between values parts separate entries of the source, which are not always exact repeats. Equal entries are not always repeated.

Key:
[1] = tested on: CCD-1059Sk (human normal skin fibroblasts); experiment: MTT cytotoxicity assay on non-cancerous fibroblasts; type: cell-based; conditions: Homo sapiens, CCD-1059Sk, 24 h incubation, non-cancerous cells, read-out: IC50 ± SD, CCD-1059-Sk
Protocol: (§1) Cytotoxic activity of the investigated compounds was evaluated against T98G (glioblastoma), HepG2 (hepatoma), LS-180 (colon cancer) and A375 (melanoma) cell lines. Human normal skin fibroblasts, CCD-1059Sk (CRL-2072), were used as reference (non-cancerous) cells. All of the cell lines were obtained from American Type Culture Collection (ATCC; Manassas, VA, USA). A375, T98G and CCD-1059Sk cells were cultured in Dulbecco’s Modified Eagle’s Medium (DMEM) (Sigma Aldrich, St. Louis, MO, USA) supplemented with 10% FBS, penicillin (100 U/mL) and streptomycin (100 μg/mL). LS-180 and HepG2 cells were cultured in Eagle’s Minimum Essential Medium supplemented with 10% FBS, penicillin (100 U/mL) and streptomycin (100 μg/mL). All of the cells were maintained at 37 °C in a humidified atmosphere of 5% CO2. The compounds were dissolved in DMSO in order to obtain stock solutions. At the day of the experiment, the suspension of cells (1 × 10^5 cells/mL) was distributed onto 96-well plates at a volume of 100 μL/well. After attachment, the cells were treated with the increased concentrations of the tested compounds in medium containing 2% FBS and incubated for 24 h. Then, the medium was removed from wells, and cells were rinsed with PBS. Afterwards, 15 μL of MTT working solution (5 mg/mL in PBS) was added to each well, and the plates were incubated for 3 h. Subsequently, 100 μL of 10% SDS solution was added to each well in order to dissolve the precipitated formazan crystals. After overnight incubation at 37 °C, the absorbance of the obtained solution was measured at λ = 570 nm using a microplate reader (Epoch, BioTek Instruments, Inc., Winooski, VT, USA). At least two independent experiments were performed in triplicate. […] IC50 values of the investigated derivatives and positive control (etoposide) were calculated using the IC50 online calculator [101].

HepG2 (hepatoma) = experiment: MTT cytotoxicity assay on HepG2 cells; type: cell-based, human; conditions: Homo sapiens, HepG2; MTT, 24 h incubation; read-out: IC50 ± SD, HepG2
Protocol: as §1

A375 (melanoma) = experiment: MTT cytotoxicity assay on A375 cells; type: cell-based, human; conditions: Homo sapiens, A-375, 24 h incubation, read-out: IC50 ± SD, A375
Protocol: as §1

T98G (glioblastoma) = experiment: MTT cytotoxicity assay on T98G cells; type: cell-based; conditions: Homo sapiens, T98G; MTT, 24 h incubation; read-out: IC50 ± SD, T98G
Protocol: as §1

LS-180 (colon cancer) = experiment: MTT cytotoxicity assay on LS-180 cells; type: cell-based, human; conditions: Homo sapiens, LS180, 24 h incubation, read-out: IC50 ± SD, LS180
Protocol: as §1

[2] = tested on: A375, HepG2, LS-180, T98G and CCD-1059Sk cell lines; experiment: MTT cytotoxicity assay, summary statements over several cell lines; type: cell-based; conditions: Homo sapiens; all cell lines (A375, HepG2, LS-180, T98G, CCD-1059-Sk)
Protocol: as §1

[3] = ABTS radical scavenging assay; conditions: ±SD; 10 min, 30 °C
Protocol: The ABTS radical scavenging assay of samples (ligands or complexes) was performed with ascorbic acid as a positive control. Briefly, 30 μL of different concentrations of the samples, dissolved in DMSO, was mixed with 170 μL of ABTS solution (2 mM ABTS diammonium salt, 3.5 mM potassium persulfate) and completed with water to a final volume of 300 μL. ABTS solution with DMSO was used as a control. […] ABTS inhibition was calculated according to the following equation:ABTS Inhibition (%) = [(Acontrol − Asample)/Acontrol] × 100% The radical scavenging activity of the samples was shown as the IC50 value (the concentration of the analyzed samples that caused a decrease in the non-reduced form of the ABTS radical by 50%).

[4] = tested on: Candida albicans ATCC 102231; experiment: Two-fold microdilution broth method, MIC; type: cell-based; conditions: Candida albicans, ATCC102231; 35 °C, 24 h
From the text: (§2) Antibacterial and antifungal activities of the free ligands L2, L3 and L4 and the corresponding copper(II) complexes C2, C3 and C4 were screened using the two-fold microdilution broth method. Minimal inhibitory concentrations (MICs) of tested compounds for the panel of reference Gram-positive bacteria, including Staphylococcus aureus ATCC 25923, Staphylococcus aureus ATCC BAA-1707, Staphylococcus epidermidis ATCC 12228, Micrococcus luteus ATCC 10240 and Bacillus cereus ATCC 10876; Gram-negative bacteria, including Salmonella Typhimurium ATCC 14028, Escherichia coli ATCC 25922, Proteus mirabilis ATCC 12453, Klebsiella pneumoniae ATCC 13883 and Pseudomonas aeruginosa ATCC 9027; and yeasts, including Candida albicans ATCC 102231, Candida parapsilosis ATCC 22019 and Candida glabrata ATCC 90030 were determined. The procedure has been described in detail before. Briefly, the solutions of tested compounds dissolved in dimethylosulfoxide (DMSO) were suspended in Mueller–Hinton broth for bacteria or Mueller–Hinton broth with 2% glucose for fungi. Then, the series of two-fold dilutions were carried out in the sterile Nunc™ MicroWell™ 96-Well Microplates (ThermoFisher Scientific Inc.), obtaining concentrations from 1000 to 7.8 mg/L in the appropriate medium. Simultaneously, the inocula of 24 h cultures of microorganisms in sterile physiological saline (0.5 McFarland standard density) were prepared and added to each well, obtaining final density of 5 × 10^5 CFU/mL for bacteria and 5 × 10^4 CFU/mL for yeasts. Proper positive (inoculum without tested compound) and negative (compound without inoculum) controls were added in each microplate. After incubation (35 °C, 24 h), the growth of microorganisms was measured spectrophotometrically at 600 nm (BioTEK ELx808, Bio-Tek Instruments, Inc., Winooski, VT, USA). MICs were marked at the lowest concentration of the compound without the growth of bacteria or fungi.

[5] = tested on: Candida glabrata ATCC 90030; experiment: Two-fold microdilution broth method, MIC; type: cell-based; conditions: Nakaseomyces glabratus, ATCC90030; 35 °C, 24 h
From the text: as §2

[6] = tested on: Candida parapsilosis ATCC 22019; experiment: Two-fold microdilution broth method, MIC; type: cell-based; conditions: Lodderomyces parapsilosis, ATCC22019; 35 °C, 24 h
From the text: as §2

Candida = experiment: Two-fold microdilution broth method, MIC, yeasts (summary); type: cell-based; conditions: range over the three yeast strains; read-out: MIC, anti-Candida activity
From the text: Antibacterial and antifungal activities of the free ligands L2, L3 and L4 and the corresponding copper(II) complexes C2, C3 and C4 were screened using the two-fold microdilution broth method. Minimal inhibitory concentrations (MICs) of tested compounds for the panel of reference Gram-positive bacteria, including Staphylococcus aureus ATCC 25923, Staphylococcus aureus ATCC BAA-1707, Staphylococcus epidermidis ATCC 12228, Micrococcus luteus ATCC 10240 and Bacillus cereus ATCC 10876; Gram-negative bacteria, including Salmonella Typhimurium ATCC 14028, Escherichia coli ATCC 25922, Proteus mirabilis ATCC 12453, Klebsiella pneumoniae ATCC 13883 and Pseudomonas aeruginosa ATCC 9027; and yeasts, including Candida albicans ATCC 102231, Candida parapsilosis ATCC 22019 and Candida glabrata ATCC 90030 were determined. The procedure has been described in detail before. Briefly, the solutions of tested compounds dissolved in dimethylosulfoxide (DMSO) were suspended in Mueller–Hinton broth for bacteria or Mueller–Hinton broth with 2% glucose for fungi. […] After incubation (35 °C, 24 h), the growth of microorganisms was measured spectrophotometrically at 600 nm (BioTEK ELx808, Bio-Tek Instruments, Inc., Winooski, VT, USA). […]

| SMILES | IC50 ABTS [3] | MIC [4] [µg/mL] | MIC [5] [µg/mL] | MIC [6] [µg/mL] | MIC (Candida) [µg/mL] | IC50 [1] [µg/mL] | IC50 (HepG2 (hepatoma)) [µg/mL] | IC50 (A375 (melanoma)) [µg/mL] | IC50 (T98G (glioblastoma)) [µg/mL] | IC50 (LS-180 (colon cancer)) [µg/mL] | IC50 [2] [µg/mL] | melting point [°C] |
| --- | --- | --- | --- | --- | --- | --- | --- | --- | --- | --- | --- | --- |
| COc1cc([C@@H]2c3cc4c(cc3[C@@H](O[C@@H]3O[C@@H]5CO[C@@H](C)O[C@H]5[C@H](O)[C@H]3O)[C@H]3COC(=O)[C@H]23)OCO4)cc(OC)c1O [Etoposide, etoposide, reference compound] | – | – | – | – | – | 83.5 ± 3.19 (≈ 142 µM) | 43.2 ± 2.75 (≈ 73.4 µM) | 10.2 ± 0.83 (≈ 17.3 µM) | > 100 | > 100 | – | – |
| O=C1NCCN1c1cc2ccccc2cn1 [L2, 1-(isoquinolin-3-yl)imidazolidin-2-one] | 82.08 ± 2.77 µg/mL (≈ 385 µM) | 500 (≈ 2340 µM) | > 1000 | 1000 (≈ 4690 µM) | – | > 200 | > 200 | > 200 | > 200 | > 200 | > 200 | 234 to 236 |
| CCN1CCN(c2cc3ccccc3cn2)C1=O [L4, 1-ethyl-3-(isoquinolin-3-yl)imidazolidin-2-one] | 108.59 ± 1.51 µg/mL (≈ 450 µM) | 1000 (≈ 4140 µM) | 1000 (≈ 4140 µM) | > 1000 | – | > 200 | > 200 | > 200 | > 200 | > 200 | > 200 | 151 to 153 |

Second part, led by results:

| IC50 ABTS [3] | MIC [4] [µg/mL] | MIC [5] [µg/mL] | MIC [6] [µg/mL] | MIC (Candida) [µg/mL] | SMILES | IC50 [1] [µg/mL] | IC50 (HepG2 (hepatoma)) [µg/mL] | IC50 (A375 (melanoma)) [µg/mL] | IC50 (T98G (glioblastoma)) [µg/mL] | IC50 (LS-180 (colon cancer)) [µg/mL] | IC50 [2] [µg/mL] | melting point [°C] |
| --- | --- | --- | --- | --- | --- | --- | --- | --- | --- | --- | --- | --- |
| 183.21 ± 2.45 µg/mL (≈ 924 µM) | – | – | – | – | O=C1CCN1c1cc2ccccc2cn1 [L1, 1-(isoquinolin-3-yl)azetidin-2-one] | > 200 | > 200 | > 200 | > 200 | > 200 | > 200 | – |
| 96.76 µg/mL and 96.67 ± 2.84 µg/mL | 250 (≈ 1100 µM) | 250 (≈ 1100 µM) | 125 (≈ 550 µM) | 125 to 250 (≈ 550 to 1100 µM) | CN1CCN(c2cc3ccccc3cn2)C1=O [L3, 1-(isoquinolin-3-yl)-3-methylimidazolidin-2-one] | > 200 | > 200 | > 200 | > 200 | > 200 | > 200 | – |
